From ChEMBL document CHEMBL1201862, “PubChem BioAssay data set” (2004)
Activity calls are given as the source filed them.

How the values were obtained:
Hexokinase-1 = target: T1, Hexokinase-1 (Homo sapiens, UniProt P19367); assay: SAR analysis of small molecule inhibitors of hexokinase domain containing I (HKDC1) in the hexokinase 1 selectivity assay. [Related pubchem assays (depositor defined):AID493160, AID493190]; assay type: functional
T1 sequence (P19367 whole entry): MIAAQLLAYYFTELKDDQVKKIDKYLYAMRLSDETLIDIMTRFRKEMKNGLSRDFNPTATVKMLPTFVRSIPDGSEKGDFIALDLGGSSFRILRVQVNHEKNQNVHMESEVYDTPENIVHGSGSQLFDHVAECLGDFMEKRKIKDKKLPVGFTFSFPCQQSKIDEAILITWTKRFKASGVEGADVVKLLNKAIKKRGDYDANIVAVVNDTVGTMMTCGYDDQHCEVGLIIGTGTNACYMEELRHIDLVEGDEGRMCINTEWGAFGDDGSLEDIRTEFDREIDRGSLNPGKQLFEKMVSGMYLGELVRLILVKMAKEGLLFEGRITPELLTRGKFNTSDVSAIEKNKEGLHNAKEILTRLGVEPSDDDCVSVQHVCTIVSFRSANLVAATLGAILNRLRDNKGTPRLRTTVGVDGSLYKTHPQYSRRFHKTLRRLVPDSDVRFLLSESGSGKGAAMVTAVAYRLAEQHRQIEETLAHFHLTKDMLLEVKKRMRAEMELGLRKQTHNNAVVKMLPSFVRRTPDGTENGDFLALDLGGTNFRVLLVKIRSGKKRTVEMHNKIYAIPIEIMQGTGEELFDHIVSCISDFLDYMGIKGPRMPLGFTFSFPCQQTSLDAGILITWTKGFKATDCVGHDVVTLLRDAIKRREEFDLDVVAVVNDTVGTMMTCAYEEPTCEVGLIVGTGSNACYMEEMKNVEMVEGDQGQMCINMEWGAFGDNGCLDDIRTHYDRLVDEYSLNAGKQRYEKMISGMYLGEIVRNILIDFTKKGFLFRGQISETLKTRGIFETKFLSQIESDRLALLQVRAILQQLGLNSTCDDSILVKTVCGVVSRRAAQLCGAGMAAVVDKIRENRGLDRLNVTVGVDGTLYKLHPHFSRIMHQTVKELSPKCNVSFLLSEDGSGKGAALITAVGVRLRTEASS

Hexokinase HKDC1 = target: T2, Hexokinase HKDC1 (Homo sapiens, UniProt Q2TB90); assay: SAR analysis of small molecule inhibitors of hexokinase domain containing I (HKDC1). [Related pubchem assays (depositor defined):AID493160, AID493190]; assay type: functional
T2 sequence (Q2TB90 whole entry): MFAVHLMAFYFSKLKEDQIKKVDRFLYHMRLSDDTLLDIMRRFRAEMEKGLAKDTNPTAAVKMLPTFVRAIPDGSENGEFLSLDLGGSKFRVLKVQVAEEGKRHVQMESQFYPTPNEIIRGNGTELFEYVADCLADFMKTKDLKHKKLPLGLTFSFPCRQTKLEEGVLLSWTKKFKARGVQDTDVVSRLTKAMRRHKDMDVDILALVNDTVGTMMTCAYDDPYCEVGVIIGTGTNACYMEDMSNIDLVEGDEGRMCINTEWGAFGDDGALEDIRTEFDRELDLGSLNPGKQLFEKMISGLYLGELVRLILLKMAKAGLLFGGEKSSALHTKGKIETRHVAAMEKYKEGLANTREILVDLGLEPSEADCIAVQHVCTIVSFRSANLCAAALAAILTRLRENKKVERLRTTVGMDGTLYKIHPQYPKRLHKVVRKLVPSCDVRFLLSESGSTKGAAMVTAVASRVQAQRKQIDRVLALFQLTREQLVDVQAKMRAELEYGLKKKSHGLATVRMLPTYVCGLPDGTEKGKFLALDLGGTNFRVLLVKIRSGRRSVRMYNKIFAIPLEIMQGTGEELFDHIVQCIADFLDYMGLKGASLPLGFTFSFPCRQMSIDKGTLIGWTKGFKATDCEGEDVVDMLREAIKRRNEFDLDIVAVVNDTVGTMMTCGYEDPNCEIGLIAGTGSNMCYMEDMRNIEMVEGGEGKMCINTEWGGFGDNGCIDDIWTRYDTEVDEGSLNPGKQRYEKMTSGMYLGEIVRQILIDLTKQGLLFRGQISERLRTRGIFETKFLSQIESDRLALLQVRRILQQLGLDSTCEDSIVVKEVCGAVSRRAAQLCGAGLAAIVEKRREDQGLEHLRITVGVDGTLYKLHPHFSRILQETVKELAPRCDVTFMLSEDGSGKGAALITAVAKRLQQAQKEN

Phospholipase D2 = Phospholipase D2 (Homo sapiens, UniProt O14939); assay: cellular phospholipase D2 inhibition IC50 – cell-based, dose response (AID 602147); assay type: functional;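 note: cellular assay in HEK293 cells overexpressing GFP-tagged PLD2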
Phospholipase D1 = Phospholipase D1 (Homo sapiens, UniProt Q13393); assay: cellular phospholipase D1 inhibition IC50 – cell-based, dose response (AID 602151); assay type: functional;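 note: cellular PLD1 assay in Calu-1 cells stimulated with PMA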
[1] = target: T3, Sentrin-specific protease 6 (Homo sapiens, UniProt Q9GZR1); assay: inhibition of human SENP6 catalytic domain – biochemical, luminescence, set 2, SAR follow-up (AID 588598); assay type: functional
T3 sequence (Q9GZR1 whole entry): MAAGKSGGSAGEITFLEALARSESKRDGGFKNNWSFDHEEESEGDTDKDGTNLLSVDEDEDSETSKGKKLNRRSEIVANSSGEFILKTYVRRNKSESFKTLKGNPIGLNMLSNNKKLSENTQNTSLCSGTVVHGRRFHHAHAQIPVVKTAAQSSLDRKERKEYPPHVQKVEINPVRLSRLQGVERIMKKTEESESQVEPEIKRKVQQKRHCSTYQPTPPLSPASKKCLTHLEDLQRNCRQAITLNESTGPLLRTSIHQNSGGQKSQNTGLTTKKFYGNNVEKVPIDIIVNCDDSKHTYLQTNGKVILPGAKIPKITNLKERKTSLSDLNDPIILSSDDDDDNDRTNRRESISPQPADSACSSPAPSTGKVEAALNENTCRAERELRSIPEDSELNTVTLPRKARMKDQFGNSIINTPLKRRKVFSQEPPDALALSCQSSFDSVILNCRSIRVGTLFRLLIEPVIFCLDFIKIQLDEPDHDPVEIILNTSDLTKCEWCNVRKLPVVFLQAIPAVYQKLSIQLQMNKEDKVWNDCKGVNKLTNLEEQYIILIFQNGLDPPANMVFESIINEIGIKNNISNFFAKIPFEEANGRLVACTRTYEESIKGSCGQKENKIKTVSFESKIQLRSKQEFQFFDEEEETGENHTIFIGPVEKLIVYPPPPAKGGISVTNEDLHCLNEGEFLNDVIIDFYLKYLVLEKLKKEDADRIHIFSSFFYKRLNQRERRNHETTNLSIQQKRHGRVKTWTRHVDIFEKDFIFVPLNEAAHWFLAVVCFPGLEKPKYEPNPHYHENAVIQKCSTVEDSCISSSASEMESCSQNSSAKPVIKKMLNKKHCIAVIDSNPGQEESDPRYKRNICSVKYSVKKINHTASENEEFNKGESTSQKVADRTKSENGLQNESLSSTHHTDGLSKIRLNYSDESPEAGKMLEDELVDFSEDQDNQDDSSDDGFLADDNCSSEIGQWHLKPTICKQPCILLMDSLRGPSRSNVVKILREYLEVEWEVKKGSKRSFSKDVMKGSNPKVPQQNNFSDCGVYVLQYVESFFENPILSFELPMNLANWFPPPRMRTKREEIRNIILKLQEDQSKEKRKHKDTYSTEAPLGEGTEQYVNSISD

[2] = target: T4, Sentrin-specific protease 8 (Homo sapiens, UniProt Q96LD8); assay: inhibition of sentrin protease 8 – biochemical, luminescence, set 2, SAR follow-up (AID 588601); assay type: functional
T4 sequence (Q96LD8 whole entry): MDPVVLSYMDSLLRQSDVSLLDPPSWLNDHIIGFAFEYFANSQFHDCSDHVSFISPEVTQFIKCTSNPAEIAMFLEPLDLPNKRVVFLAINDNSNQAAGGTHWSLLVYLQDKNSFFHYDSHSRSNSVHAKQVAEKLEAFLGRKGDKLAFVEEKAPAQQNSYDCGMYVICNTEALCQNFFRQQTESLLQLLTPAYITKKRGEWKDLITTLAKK

Caspase-3 = target: T5, Caspase-3 (Homo sapiens, UniProt P42574); assay: inhibition of recombinant caspase-3 activity – biochemical, luminescence, set 2, selectivity assay for SENP protease inhibitor project, SAR follow-up (AID 588599); assay type: functional
T5 sequence (P42574 whole entry): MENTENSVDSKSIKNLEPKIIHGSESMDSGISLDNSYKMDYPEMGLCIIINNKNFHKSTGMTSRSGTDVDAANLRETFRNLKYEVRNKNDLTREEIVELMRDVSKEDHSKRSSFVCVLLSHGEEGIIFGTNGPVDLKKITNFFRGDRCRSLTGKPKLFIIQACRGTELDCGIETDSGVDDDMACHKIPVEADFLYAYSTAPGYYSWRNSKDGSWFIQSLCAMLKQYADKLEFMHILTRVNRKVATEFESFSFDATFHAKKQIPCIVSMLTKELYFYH

[3] = target: T6, Sentrin-specific protease 7 (Homo sapiens, UniProt Q9BQF6); assay: inhibition of human SENP7 cleavage activity – biochemical, luminescence, set 2, SAR follow-up (AID 588600); assay type: functional
T6 sequence (Q9BQF6 whole entry): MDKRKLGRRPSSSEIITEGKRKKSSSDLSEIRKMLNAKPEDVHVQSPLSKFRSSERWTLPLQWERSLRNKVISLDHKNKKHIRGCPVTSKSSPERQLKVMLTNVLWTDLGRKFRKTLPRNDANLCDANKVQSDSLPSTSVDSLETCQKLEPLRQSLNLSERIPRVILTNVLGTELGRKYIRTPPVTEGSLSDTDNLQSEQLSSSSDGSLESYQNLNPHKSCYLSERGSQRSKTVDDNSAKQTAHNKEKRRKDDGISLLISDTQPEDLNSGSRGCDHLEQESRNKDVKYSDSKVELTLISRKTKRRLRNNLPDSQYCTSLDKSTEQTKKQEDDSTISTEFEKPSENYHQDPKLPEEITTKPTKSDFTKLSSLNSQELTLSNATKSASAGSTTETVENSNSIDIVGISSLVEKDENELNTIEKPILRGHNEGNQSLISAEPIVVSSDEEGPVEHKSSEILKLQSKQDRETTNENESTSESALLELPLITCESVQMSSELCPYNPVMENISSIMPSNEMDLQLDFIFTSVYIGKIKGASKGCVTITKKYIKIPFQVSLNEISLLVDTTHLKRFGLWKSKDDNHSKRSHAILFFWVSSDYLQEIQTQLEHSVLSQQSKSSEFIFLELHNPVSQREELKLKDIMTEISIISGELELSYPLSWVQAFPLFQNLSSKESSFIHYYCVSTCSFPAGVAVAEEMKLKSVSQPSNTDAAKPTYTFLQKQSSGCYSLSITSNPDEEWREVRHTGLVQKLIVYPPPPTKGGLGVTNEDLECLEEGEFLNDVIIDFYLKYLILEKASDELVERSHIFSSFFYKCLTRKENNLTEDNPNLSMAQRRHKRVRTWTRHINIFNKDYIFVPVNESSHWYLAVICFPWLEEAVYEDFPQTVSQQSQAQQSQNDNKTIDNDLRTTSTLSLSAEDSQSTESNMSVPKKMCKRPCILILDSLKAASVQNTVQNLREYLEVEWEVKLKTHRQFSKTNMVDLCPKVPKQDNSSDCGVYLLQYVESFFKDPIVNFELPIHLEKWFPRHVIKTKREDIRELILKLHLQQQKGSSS

INS1 [4] = assay: beta-cell survival under cytokine stress – INS-1E, ATP luminescence, dry powder, dose response (AID 488844); assay type: functional, cell-based; conditions: Rattus norvegicus
INS1 [5] = assay: INS-1E mitochondrial potential loss inhibitors – cell-based, JC-1 fluorescence, dry powder, set 2, dose response (AID 488867); assay type: functional; conditions: Rattus norvegicus
INS1 [6] = assay: INS-1E mitochondrial potential rescue under cytokines – cell-based, JC-1 fluorescence ratio, dry powder, dose response (AID 488931); assay type: functional; conditions: Rattus norvegicus
[7] = alpha-synuclein stem-loop luciferase translation blockers – H4 neuroglioma cells, luminescence, confirmation (AID 1988); assay type: functional, cell-based
[8] = decrease of insulin promoter-GFP reporter – imaging, high-content screening, mouse beta cells (AID 1628); assay type: functional; conditions: MIN6
[9] = target: Luciferin 4-monooxygenase (Photuris pensylvanica, UniProt Q27757); assay: inhibition of Cell Titer Glo luciferase signal – biochemical, luminescence, cherry-picks, counter-screen for HSF-1 reporter inhibitor project, dose response (AID 588847)
[10] = MIN6 cell viability loss – mouse insulinoma, cytotoxicity control, dose response (AID 2122); assay type: functional;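 note: confirmatory high-throughput counterscreen run to flag cytotoxic compounds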
[11] = Luminescence Cell-Based Dose Response HTS to Identify Inhibitors of 5'UTR Stem-Loop Driven Prion Protein mRNA Translation in H4 Neuroglioblastoma Cells. [Related pubchem assays: 1827 (Project Summary), 1813 (Primary HTS)]; assay type: functional
[12] = luciferase reporter signal suppression in cells – H4 neuroglioma cells, luminescence, dose response (AID 1990); assay type: functional, cell-based

Chain of Phospholipase D1 (Q13393 whole entry, the tested form may be a part): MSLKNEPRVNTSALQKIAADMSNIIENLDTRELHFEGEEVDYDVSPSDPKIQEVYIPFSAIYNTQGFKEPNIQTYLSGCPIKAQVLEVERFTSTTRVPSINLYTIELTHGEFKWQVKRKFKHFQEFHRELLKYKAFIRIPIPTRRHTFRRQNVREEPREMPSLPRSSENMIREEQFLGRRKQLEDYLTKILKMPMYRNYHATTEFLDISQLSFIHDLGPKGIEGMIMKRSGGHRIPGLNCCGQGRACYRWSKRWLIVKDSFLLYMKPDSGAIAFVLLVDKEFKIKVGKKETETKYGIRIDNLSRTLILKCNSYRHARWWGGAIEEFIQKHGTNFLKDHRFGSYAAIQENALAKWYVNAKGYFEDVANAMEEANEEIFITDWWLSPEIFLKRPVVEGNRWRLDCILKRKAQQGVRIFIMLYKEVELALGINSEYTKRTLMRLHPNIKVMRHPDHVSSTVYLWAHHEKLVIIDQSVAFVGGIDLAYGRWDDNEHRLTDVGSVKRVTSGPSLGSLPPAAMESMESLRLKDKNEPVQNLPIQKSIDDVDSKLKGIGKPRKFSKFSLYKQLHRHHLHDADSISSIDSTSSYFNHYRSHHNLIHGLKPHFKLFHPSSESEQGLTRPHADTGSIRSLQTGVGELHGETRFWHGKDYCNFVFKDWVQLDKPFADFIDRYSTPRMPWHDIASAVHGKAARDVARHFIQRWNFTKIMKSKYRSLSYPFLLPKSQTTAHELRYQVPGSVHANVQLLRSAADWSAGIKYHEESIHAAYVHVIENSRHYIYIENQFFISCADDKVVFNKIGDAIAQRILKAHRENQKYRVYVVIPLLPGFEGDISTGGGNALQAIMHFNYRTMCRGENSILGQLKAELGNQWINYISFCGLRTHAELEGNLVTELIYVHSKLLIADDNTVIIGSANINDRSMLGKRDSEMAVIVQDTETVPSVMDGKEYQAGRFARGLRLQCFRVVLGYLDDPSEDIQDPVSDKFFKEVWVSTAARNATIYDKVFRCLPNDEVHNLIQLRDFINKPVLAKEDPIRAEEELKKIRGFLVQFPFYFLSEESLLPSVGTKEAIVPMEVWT
Chain of Luciferin 4-monooxygenase (Q27757 whole entry): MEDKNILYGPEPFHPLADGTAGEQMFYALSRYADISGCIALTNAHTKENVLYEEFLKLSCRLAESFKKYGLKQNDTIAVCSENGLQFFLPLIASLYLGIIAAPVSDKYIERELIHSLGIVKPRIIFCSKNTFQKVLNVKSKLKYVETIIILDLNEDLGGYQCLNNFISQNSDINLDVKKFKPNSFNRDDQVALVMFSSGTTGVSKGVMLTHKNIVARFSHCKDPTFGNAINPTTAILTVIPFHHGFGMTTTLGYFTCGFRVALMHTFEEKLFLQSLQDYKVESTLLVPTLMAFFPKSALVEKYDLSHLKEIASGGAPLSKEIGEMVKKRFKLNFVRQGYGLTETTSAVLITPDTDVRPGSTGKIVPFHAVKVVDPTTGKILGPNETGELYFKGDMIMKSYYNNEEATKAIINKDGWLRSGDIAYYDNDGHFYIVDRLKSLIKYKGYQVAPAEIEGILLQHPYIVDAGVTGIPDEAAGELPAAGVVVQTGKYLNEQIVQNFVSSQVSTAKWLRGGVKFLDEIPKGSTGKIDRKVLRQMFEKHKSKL
Chain of Phospholipase D2 (O14939 whole entry): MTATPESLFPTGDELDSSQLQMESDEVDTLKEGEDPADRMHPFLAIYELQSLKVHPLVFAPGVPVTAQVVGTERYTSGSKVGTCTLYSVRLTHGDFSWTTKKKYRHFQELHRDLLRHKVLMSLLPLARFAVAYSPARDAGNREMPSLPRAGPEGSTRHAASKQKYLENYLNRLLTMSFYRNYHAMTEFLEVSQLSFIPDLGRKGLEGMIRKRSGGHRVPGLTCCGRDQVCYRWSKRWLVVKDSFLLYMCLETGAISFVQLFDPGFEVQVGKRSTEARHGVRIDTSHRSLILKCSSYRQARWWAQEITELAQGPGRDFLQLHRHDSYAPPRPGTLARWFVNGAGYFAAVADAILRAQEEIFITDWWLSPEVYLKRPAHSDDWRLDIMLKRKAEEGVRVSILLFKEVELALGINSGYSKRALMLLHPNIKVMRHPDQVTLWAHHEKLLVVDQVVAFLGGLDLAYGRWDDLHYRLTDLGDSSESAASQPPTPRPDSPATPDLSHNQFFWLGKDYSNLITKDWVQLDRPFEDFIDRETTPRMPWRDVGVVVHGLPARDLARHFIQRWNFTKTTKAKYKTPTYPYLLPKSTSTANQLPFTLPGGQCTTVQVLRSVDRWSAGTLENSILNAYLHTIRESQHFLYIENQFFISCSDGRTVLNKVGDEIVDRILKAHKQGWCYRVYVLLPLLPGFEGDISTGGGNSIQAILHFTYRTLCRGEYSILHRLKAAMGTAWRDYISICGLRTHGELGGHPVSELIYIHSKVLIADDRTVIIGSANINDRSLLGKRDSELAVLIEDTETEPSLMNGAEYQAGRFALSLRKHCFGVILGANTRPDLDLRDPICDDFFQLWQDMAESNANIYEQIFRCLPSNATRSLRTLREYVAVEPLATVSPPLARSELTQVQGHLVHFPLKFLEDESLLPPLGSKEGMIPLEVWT

**Q.** Which results are given for `Nc1n[nH]c(SCC(=O)Nc2cc(S(=O)(=O)N3CCOCC3)ccc2Cl)n1`?
**A.** IC50 (Hexokinase-1): > 80 µM (inactive); IC50 (Hexokinase HKDC1): > 80 µM (inactive)

**Q.** For `C[C@@H](CN1CCC2(CC1)C(=O)NCN2c1ccc(F)c(F)c1)NC(=O)c1ccc2ccccc2c1`, which IC50 (Phospholipase D2) is on record?
**A.** 0.3 µM (active)

**Q.** What about the IC50 (Phospholipase D1) of the same molecule?
**A.** 0.1 µM (active)

**Q.** For `CS(=O)(=O)c1ccc2nc(NC(=O)c3ccc(OC(F)(F)F)cc3)sc2c1`, which IC50 [1] is on record?
**A.** > 99 µM (inactive)

**Q.** What about the IC50 [2] of the same molecule?
**A.** > 99 µM (inactive)

**Q.** What about the IC50 (Caspase-3) of the same molecule?
**A.** > 99 µM (inactive)

**Q.** And the IC50 [3]?
**A.** > 99 µM (inactive)

**Q.** Which AC50 (INS1 [4]) does the source give for `COc1ccc(S(=O)(=O)N(C)C[C@@H]2Oc3c(NC(=O)Nc4ccccc4)cccc3C(=O)N([C@H](C)CO)C[C@H]2C)cc1` here?
**A.** 22.8 µM (active)

**Q.** And the AC50 (INS1 [5])?
**A.** > 260 µM (inactive)

**Q.** And the AC50 (INS1 [6])?
**A.** > 195 µM (inactive)

**Q.** With `C[C@@H]1C[C@H]2[C@@H]3CCC4=CC(=O)C=C[C@]4(C)[C@@]3(F)[C@@H](O)C[C@]2(C)[C@@]1(O)C(=O)CO` [DEXAMETHASONE] as the molecule, how does the EC50 [7] read?
**A.** > 120 µM (not active)

**Q.** And the IC50 [8]?
**A.** < 0.25 µM (active)

**Q.** And the AC50 [9]?
**A.** > 52 µM (inactive)

**Q.** And the IC50 [10]?
**A.** > 16 µM (inactive)

**Q.** What about the EC50 [11] of the same molecule?
**A.** > 120 µM (not active)

**Q.** What about the EC50 [12] of the same molecule?
**A.** > 120 µM (not active)
